Results: US12065435B2, “Compounds for the treatment of glycogen storage disorders” (HADASIT MEDICAL RESEARCH SERVICES AND DEVELOPMENT LTD., priority 2017, dated 2024)

Assays:
recombinant human GS1 = target: T1, recombinant human GS1 (Homo sapiens, UniProt P13807); assay: In vitro GS activity assay; assay type: biochemical; conditions: 50 μM; unpaired t-tests, p<0.05
T1 sequence (P13807 1-737): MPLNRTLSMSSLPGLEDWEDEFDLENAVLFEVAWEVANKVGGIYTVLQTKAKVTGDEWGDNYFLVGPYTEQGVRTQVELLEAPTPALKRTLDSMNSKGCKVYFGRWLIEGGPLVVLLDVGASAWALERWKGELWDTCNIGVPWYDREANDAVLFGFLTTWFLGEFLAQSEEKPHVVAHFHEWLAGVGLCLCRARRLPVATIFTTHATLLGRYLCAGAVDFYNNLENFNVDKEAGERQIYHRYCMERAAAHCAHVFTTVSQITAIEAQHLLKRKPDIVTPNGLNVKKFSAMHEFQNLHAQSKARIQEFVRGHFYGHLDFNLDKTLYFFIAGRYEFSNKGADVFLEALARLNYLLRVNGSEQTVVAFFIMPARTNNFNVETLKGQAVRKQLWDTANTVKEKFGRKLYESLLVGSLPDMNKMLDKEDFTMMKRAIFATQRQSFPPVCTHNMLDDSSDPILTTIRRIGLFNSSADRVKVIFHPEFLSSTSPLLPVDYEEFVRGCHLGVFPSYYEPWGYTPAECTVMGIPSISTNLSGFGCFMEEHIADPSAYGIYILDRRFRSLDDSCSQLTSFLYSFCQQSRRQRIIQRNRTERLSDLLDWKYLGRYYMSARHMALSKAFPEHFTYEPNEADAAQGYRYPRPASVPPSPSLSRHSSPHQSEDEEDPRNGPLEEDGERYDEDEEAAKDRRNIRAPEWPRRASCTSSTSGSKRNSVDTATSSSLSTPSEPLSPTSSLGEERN
Method: The reaction was carried out in 96-well plates containing 50 μl of reaction volume (50 mM Tris, pH8, 20 mM EDTA, 25 mM KF, 2 mg/ml glycogen, 10 mM Glucose-6-Phosphate, 1.65 mM UDP[14C]glucose and 100 mM UDP-glucose). To test the inhibitory effect of the hits, each one was included in the reaction at a final concentration of 50 μM. The reaction was initiated with the addition of 20 nM recombinant human GS1, followed by incubation at 37° C. for 30 min. The reaction was then stopped with the addition of 100 μl cold 100% ethanol, and the total suspension was transferred into a 96-well filter plate. Vacuum was applied to remove the ethanol. Five washing steps with 150 μl of cold 66% ethanol then fully removed any non-incorporated UDP[14C]glucose, while the labelled glycogen stayed on the well filters. The plate was dried at 37° C. incubator for 30 min. 50 μl of scintillation fluid was added to each well and the plate was read for 14C signal on Microplate scintillation and luminescence counter Top Count (Perkin Elmer).

[1] = tested on: APBD modeling mice (Gbe^Y329S/Y329S mouse model); assay: Motor parameters in APBD modeling mice; assay type: in vivo
Method: This study was conducted in compounds A and B according to the schemes described in Tables 8 and 9, respectively.
As vehicle control, 0.1% DMSO was used. It is noteworthy that, in order to have a statistically significant number of animals, compound A was tested in male mice and compound B in female mice (no mixed cages were allowed).
APBD is an autosomal disease with no gender related symptoms and it was presumed that this experimental design is optimal. The mode of delivery of the compounds was intravenous (IV) injection for the first month, followed by subcutaneous injection due to lack of injection space and scaring in animal tails.
Tables 8 and 9 describe the study design for compounds A and B. both compounds were tested at the age of 4 months, two months prior to disease onset, in order to assess possible prophylactic effects, and at the age of 6 months, at disease onset, in order to assess corrective effects.
The effect of compounds A and B on various motor parameters was tested every two weeks. The results are shown in herein.
The point of reference is one time point prior to treatment initiation. Please note, since animals first treated with the compounds at 6 months of age were not injected at all before that age, they could not have been compared to animals pre-injected with vehicle. Therefore, the duration of the longitudinal studies for the cohorts first treated at the age of 6 months is shorter than that of the animals first treated at 4 months of age.

[2] = tested on: polyglucosan body (PB) in APBD patient-derived fibroblasts; assay: High content (image-based) PAS screening assay for polyglucosan bodies; assay type: cell-based, human; conditions: 0, 1, 5, 10 and 50 μM
Method: All the steps of the assay were performed automatically using a Freedom Evo 150 liquid handling robot (Tecan). APBD patient-derived fibroblasts were seeded at a density of 800 cells/well in DMEM (Gibco) supplemented with 1 mM sodium pyruvate (Gibco), 1% antibiotics (Biological Industries, Israel) and 5% fetal bovine serum (Hyclone) into 384 well microclear plates (Greiner). The plates were transferred by the robotic arm (RoMa) into an automated incubator (Liconic), integrated with the robotic system, where they were incubated at 37° C. with 5% CO2. Following 24 h incubation, the medium was replaced by the robot using medium supplemented with 10 μM of each screened compound (0.1% DMSO final concentration, all prepared by the robot). The screened compounds were part of the Diverset CL collection purchased from ChemBridge (10,084 out of 50,000 molecules).
Next, these cells were cultured for another 24 h in the automated incubator, and, using the robot, washed them with PBS (Biological Industries, Israel), the cells were fixed with 4% paraformaldehyde (PFA), washed again with PBS, neutralized the previously added PFA by ammonium chloride (Sigma Aldrich), washed with PBS, permeabilized with 0.1% Triton X-100 (Sigma Aldrich), and washed again with PBS.
Following this, a robot was used to treat the fixed cells with 0.5 g/dl diastase (or amylase, Sigma Aldrich) for 5 minutes at 37° C. in the automated incubator, wash with PBS, stained with PAS (Merck), Hoechst 33342 (Sigma Aldrich) and Cell Mask Deep Red (Molecular Probes) and wash with PBS. Images of stained cells were then acquired by the IN Cell Analyzer 2000 (GE Healthcare) and analyzed using the IN Cell Investigator (GE Healthcare) applying an algorithm that quantified the PAS signal within each Cell Mask stained cell.
Images were segmented based on the Cell Mask signal which was linked with the segmentation of the nuclei, employing an empirically established sensitivity and kernel size for allowing the best segmentation. Once these nucleus-cytoplasm complex objects were selected, the software calculated the number of these objects (cell number) as well as the intensity of the PAS signal within each of them. All the assay parameters (including the acquisition exposure times, objective, and the analysis parameters) were kept constant throughout the whole screening campaign for allowing comparison of signals obtained from different batches of assay within the campaign.
The assay was performed as mentioned above, but with compound concentrations of 1, 5, 10, and 50 μM, instead of a constant concentration of 10 μM.
The discarded data was presumably associated with cells affected by toxic compounds. In the remaining data, the measured population mean PB intensity was normalized. Based on a series of images used for training, compounds were considered as positive only where following treatment the normalized PB mean intensity was at least under −1.2 z-score of the scale. Following this approach, 85 potential hits out of the 10,084 screened compounds were selected (0.84%).

[3] = treated from 4 months of age (2 months before onset), two way ANOVA with repeated measures
[4] = treated from 4 months of age, Bonferroni's multiple comparisons test
[5] = treated from 6 months of age (at onset), two way ANOVA with repeated measures
[6] = treated from 6 months of age, Bonferroni's multiple comparisons test

COCc1c(C(=O)N2[C@@H]3CC[C@H]2CN(C)C(=O)C3)noc1C (relative stereo) [UDP #19, (1S*,6R*)-9-{[4-(methoxymethyl)-5-methylisoxazol-3-yl]carbonyl}-3-methyl-3,9-diazabicyclo[4.2.1]nonan-4-one]
effect on GS activity (direction of change) (recombinant human GS1): increasing | apathy, mobility and responsiveness to experimenter ([1]; 250 mg/kg, IV first month then subcutaneous): less apathic, more mobile and more responsive to intervention by the experimenter | ameliorating effect on motor parameters (summary) ([1]; 250 mg/kg, IV first month then subcutaneous, tested every two weeks): ameliorate grip strength | average duration in movement in an open field test vs vehicle [1, 3]: not different from vehicle (p<0.1) | average front paw grip strength vs vehicle [1, 3]: different from vehicle with p<0.055 | average gait length vs vehicle [1, 3]: not different from vehicle (p<0.1) | average gait width vs vehicle [1, 3]: not different from vehicle (p<0.1) | average latency to fall off a metal wire vs vehicle [1, 3]: not different from vehicle (p<0.1) | average latency to fall off a rotating cylinder (rotarod) vs vehicle [1, 3]: the latency to fall was shorter in treated animals (p<0.089) | average regularity of step distance (Coefficient of Variance of all R-R and L-L step distances) vs vehicle [1, 3]: not different from vehicle (p<0.1) | average uniformity of step alternation (|0.5-(R-L/R-R)|) vs vehicle [1, 3]: not different from vehicle (p<0.1) | extension reflex vs vehicle [1, 3]: not different from vehicle (p<0.1) | average duration in movement in an open field test vs vehicle [1, 4]: no significant difference | average front paw grip strength vs vehicle [1, 4]: no significant difference | average gait length vs vehicle [1, 4]: no significant difference | average gait width vs vehicle [1, 4]: no significant difference | average latency to fall off a metal wire vs vehicle [1, 4]: no significant difference | average latency to fall off a rotating cylinder (rotarod) vs vehicle [1, 4]: 57 days after treatment initiation latency to fall was lower in treated mice as compared to vehicle control (p<0.05) | average regularity of step distance vs vehicle [1, 4]: no significant difference | average uniformity of step alternation vs vehicle [1, 4]: no significant difference | extension reflex vs vehicle [1, 4]: no significant difference | average duration in movement in an open field test vs vehicle [1, 5]: not different from vehicle (p<0.1) | average front paw grip strength vs vehicle [1, 5]: different from vehicle with p<0.1 | average gait length vs vehicle [1, 5]: not different from vehicle (p<0.1) | average gait width vs vehicle [1, 5]: not different from vehicle (p<0.1) | average latency to fall off a metal wire vs vehicle [1, 5]: not different from vehicle (p<0.1) | average latency to fall off a rotating cylinder (rotarod) vs vehicle [1, 5]: the latency to fall was shorter in treated animals (p<0.089) | average regularity of step distance vs vehicle [1, 5]: not different from vehicle (p<0.1) | average uniformity of step alternation (|0.5-(R-L/R-R)|) vs vehicle [1, 5]: not different from vehicle (p<0.1) | extension reflex vs vehicle [1, 5]: not different from vehicle (p<0.1) | average duration in movement in an open field test vs vehicle [1, 6]: no significant difference | average front paw grip strength vs vehicle [1, 6]: no significant difference | average gait length vs vehicle [1, 6]: no significant difference | average gait width vs vehicle [1, 6]: no significant difference | average latency to fall off a metal wire vs vehicle [1, 6]: no significant difference | average latency to fall off a rotating cylinder (rotarod) vs vehicle [1, 6]: no significant difference | average regularity of step distance vs vehicle [1, 6]: no significant difference | average uniformity of step alternation vs vehicle [1, 6]: a significant difference (p<0.05) between vehicle and treatment at 53 days after treatment initiation | extension reflex vs vehicle [1, 6]: no significant difference | dose response of diastase resistant cell associated mean PAS intensity normalized by z-score [2]: concentration dependent
